In paper PMC4038399, “Experimental validation of [sequence]^comb virtual ligand screening results for eight proteins yields novel nanomolar and micromolar binders” (Journal of Cheminformatics, 2014):
pKd: −log10 of the molar value. Converted amounts (≈) assume the structure as drawn. Where two headings read alike, the source gives them in different places.

What was measured:
[1] = biological target: T1, 1000006: catalytic domain of protein tyrosine phosphatase (2G59) (Homo sapiens, UniProt Q16827); test: Thermal shift (thermal melt) assay, Sypro orange; type: binding, H. sapiens
T1 construct: the catalytic domain of PTP from H. sapiens (PDB ID: 2G59) (1000006); New York structural genomics consortium (gift)
T1 sequence (Q16827 938-1195 limits assumed): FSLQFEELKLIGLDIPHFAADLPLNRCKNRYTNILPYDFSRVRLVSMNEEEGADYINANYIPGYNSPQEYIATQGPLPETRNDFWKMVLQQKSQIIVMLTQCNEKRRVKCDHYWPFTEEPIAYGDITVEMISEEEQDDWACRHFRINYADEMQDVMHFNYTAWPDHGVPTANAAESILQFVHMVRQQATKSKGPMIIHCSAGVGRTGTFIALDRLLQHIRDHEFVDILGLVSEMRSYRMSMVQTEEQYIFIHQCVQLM
Method: (§1) High throughput thermal shift assays were carried out following established guidelines (Additional file 1: Table S1). Protein melting curves were obtained from samples aliquoted in 96-well plates using a RealPlex quantitative PCR instrument from Eppendorf (Eppendorf, NY, USA), with Sypro orange dye from Invitrogen as the fluorescent probe. A uniform final concentration of 5 X (supplied as a 5000 X stock solution) was used in all experiments. The dye was excited at 465 nm and emission recorded at 580 nm using the instrument’s filters. A heating ramp of 1°C/min from 25°C to 74°C was used, and one data point acquired for each degree increment. For standardization, different buffers and pH were checked. Thereafter, 100 mM HEPES pH 7.3 and 150 mM NaCl were used in all unfolding experiments. The volume of each reaction was 20 μl, and appropriate dye and protein controls were included. All experiments were done with a minimum of two replicates, with the mean value considered for further analysis. Several drugs/small molecules interact with Sypro orange and lead to aberrant signal enhancements. An additional control to rule out drug-dye interaction was carried out with all the constituents kept constant except for the protein of interest. The protein/protein-drug curves were reported after subtracting the respective dye alone/drug-dye curves.
(§2) Each melting curve was assigned a quality score (Q), the ratio of the melting-associated increase in fluorescence (ΔFmelt) to the total fluorescence range (ΔFtotal). Q = 1 is a high-quality curve, while Q = 0 indicates no thermal transition. Though an arbitrary Q value cutoff was not applied to judge curve quality, the curves were manually curated with Q values reported. […] These were ignored (see Table 1).
(§3) Subsequent to standardization, (see SI Methods), the validity of the top 1% of […]^comb’s predictions on the test set of eight diverse proteins was examined. To be conservative, we focused only on those protein/ligand pairs showing single sigmoidal thermal transition curves. The fit to Boltzmann’s equation (Eq. 1) was employed to estimate the melting temperature from the observed intensity, I.
(§4) (4) I=Imin+Imax-Imin/1+e^Tm-T/a
(§5) Imin and Imax are the minimum and maximum intensities; a denotes the slope of the curve at the transition midpoint temperate, Tm. To estimate thermodynamic parameters, both van’t Hoff and Gibbs-Helmholtz analyses were done. To estimate the approximate ligand-binding affinity at Tm, Eq. (2) from reference was used with slight modifications; ΔCp is ignored.
(§6) (5) KLTm=exp-ΔH/R1/Tm-1/To/L
(§7) KL(Tm) is the ligand association constant and [L] is the free ligand concentration at Tm ([LTm] ~ [L]total, when [L]total > > the total concentration of protein. KD is the inverse of KL(Tm).
(§8) Thermal unfolding of the eight benchmark proteins was carried out in a 20 μl reaction mix with 100 mM HEPES pH 7.3, 150 mM NaCl, 5 X Sypro orange dye, 10 μM protein and 1 mM of all the predicted ligands.

[2] = biological target: T2, Tryptophanyl tRNA synthetase (TrpRS) (Homo sapiens, UniProt P23381); test: Thermal shift (thermal melt) assay, Sypro orange; type: binding, H. sapiens; settings: for Q (quality score): ratio ΔFmelt/ΔFtotal
T2 sequence (P23381 1-471): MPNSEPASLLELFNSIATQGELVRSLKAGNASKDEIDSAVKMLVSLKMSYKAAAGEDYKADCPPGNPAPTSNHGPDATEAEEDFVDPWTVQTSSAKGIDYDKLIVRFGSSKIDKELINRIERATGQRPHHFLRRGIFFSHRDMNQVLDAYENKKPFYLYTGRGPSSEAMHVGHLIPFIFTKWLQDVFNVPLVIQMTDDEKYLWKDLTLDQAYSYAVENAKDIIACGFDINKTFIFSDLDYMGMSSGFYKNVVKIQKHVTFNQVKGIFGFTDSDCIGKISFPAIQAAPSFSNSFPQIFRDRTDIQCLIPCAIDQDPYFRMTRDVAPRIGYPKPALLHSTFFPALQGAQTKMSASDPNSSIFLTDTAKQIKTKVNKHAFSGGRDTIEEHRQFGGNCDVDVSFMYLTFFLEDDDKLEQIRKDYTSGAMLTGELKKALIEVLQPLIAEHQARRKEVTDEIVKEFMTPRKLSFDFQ
Method: as §1, with “The dye was excited at 465 nm and emission recorded at 580 nm using the instrument’s filters. A heating ramp of 1°C/min from 25°C to 74°C was used, and one data point acquired for each degree increment.” left out
(§9) Each melting curve was assigned a quality score (Q), the ratio of the melting-associated increase in fluorescence (ΔFmelt) to the total fluorescence range (ΔFtotal). Q = 1 is a high-quality curve, while Q = 0 indicates no thermal transition. Though an arbitrary Q value cutoff was not applied to judge curve quality, the curves were manually curated with Q values reported.
as §3, §4, §5, §6, §7, §8

[3] = biological target: T3, 1000001: Carboxy-terminus phosphatase domain of protein tyrosine phosphatase (2NV5) (Mus musculus, UniProt Q64487); test: Thermal shift (thermal melt) assay, Sypro orange; type: binding, M. musculus; parameters: key to Q (quality score): Q = ΔFmelt/ΔFtotal; 1 = high-quality curve, 0 = no transition; settings: for ΔTm: in °C (unit assumed); for Q (quality score): ratio ΔFmelt/ΔFtotal
T3 construct: The C-terminal phosphatase domain from R. norvegicus (PDB ID: 2NV5) (1000001); New York structural genomics consortium (gift)
T3 sequence (Q64487 1331-1621): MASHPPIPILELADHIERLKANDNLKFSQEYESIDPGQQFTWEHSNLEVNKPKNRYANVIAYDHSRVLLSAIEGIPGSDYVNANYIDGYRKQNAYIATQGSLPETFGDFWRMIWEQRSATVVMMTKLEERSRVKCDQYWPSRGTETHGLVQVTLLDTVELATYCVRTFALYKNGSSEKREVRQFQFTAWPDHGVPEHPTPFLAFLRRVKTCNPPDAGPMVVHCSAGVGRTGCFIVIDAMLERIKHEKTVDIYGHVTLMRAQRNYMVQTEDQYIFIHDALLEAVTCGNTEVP
Method: as §1, §2, §3, §4, §5, §6, §7, §8

[4] = test system: HCT-116 colon carcinoma cell line; test: Cytotoxic assay on cancer cell line; type: cell-based; settings: for IC50: Homo sapiens, HCT-116, inhibitory concentration for 50% growth inhibition, read-out: HCT-116 (IC-50)
Method: Antimicrobial and anti-cancer tests were performed as in [80].

[5] = biological target: Nucleosome assembly protein 1 (NAP1) (Plasmodium knowlesi, UniProt A0A384KYS3); test: Thermal shift (thermal melt) assay, Sypro orange; type: binding, P. knowlesi; settings: for pKd: approximate, computed from the thermal shift
Method: as §1, §2, §3, §4, §5, §6, §7, §8

[6] = biological target: E. coli dihydrofolate reductase (DHFR) (Escherichia coli, UniProt P0ABQ4); test: biochemical; type: binding; settings: Table S3; for pKd: computed from the thermal shifts obtained, read-out: KD (Approx); for Q (quality score): ratio ΔFmelt/ΔFtotal of the melting curve; for ΔTm: thermal shift, in °C (unit assumed)
Method: as §1, with “The dye was excited at 465 nm and emission recorded at 580 nm using the instrument’s filters. A heating ramp of 1°C/min from 25°C to 74°C was used, and one data point acquired for each degree increment.” left out
as §9, §3, §4, §5, §6, §7, §8

[7] = Table S6, known binders of 1000001 tested on 1000006, in °C (unit assumed)
[8] = Table S4, TrpRS, computed from the thermal shifts obtained, read-out: KD (Approx)
[9] = Table S4, TrpRS, in °C (unit assumed)
[10] = approximate, computed from the thermal shift, read-out: KD
[11] = Table S4, protein 1000001, computed from the thermal shifts obtained, read-out: KD (Approx)
[12] = Table S6, 1000001, known binders of 1000001
[13] = inhibitory concentration for 50% growth inhibition
[14] = thermal shift, 1 mM ligand, 10 μM protein

Sequence of Nucleosome assembly protein 1 (NAP1) (A0A384KYS3 entry or part of it): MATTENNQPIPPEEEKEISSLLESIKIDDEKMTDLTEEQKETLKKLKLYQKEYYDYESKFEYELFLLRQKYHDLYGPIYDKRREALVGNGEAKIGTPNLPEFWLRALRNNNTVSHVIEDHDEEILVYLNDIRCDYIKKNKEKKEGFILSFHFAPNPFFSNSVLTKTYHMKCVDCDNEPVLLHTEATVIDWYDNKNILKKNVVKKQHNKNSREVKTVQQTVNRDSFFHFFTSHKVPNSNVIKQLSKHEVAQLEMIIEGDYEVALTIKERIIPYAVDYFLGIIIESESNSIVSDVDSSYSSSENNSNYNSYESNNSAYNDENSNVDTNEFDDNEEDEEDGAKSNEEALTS
Sequence of E. coli dihydrofolate reductase (DHFR) (P0ABQ4 whole entry): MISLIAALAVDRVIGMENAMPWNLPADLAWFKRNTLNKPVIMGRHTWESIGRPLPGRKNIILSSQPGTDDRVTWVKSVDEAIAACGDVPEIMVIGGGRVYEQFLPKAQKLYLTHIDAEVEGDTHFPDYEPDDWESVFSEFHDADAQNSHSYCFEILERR

## Oc1cccc2nc3ccccc3nc12 [NSC 88882]
[1]; [7]
  ΔTm: 4.39
[2]; [8]
  pKd: ~5.42
[2]; [9]
  ΔTm: 12.07
[2]; Table S4, TrpRS
  Q (quality score): 0.6
[2]; [10]
  pKd: ~5.42
[3]; [11]
  pKd: ~5.83
[3]; Table S4, protein 1000001
  ΔTm: 9.98
  Q (quality score): 0.8
[3]; [12]
  ΔTm: 9.79
[4]; Table S4
  HCT-116 (IC-50): 4.44
[4]; [13]
  HCT-116 (IC-50): 4.44 µg/mL

## O=C1C[C@@H](c2ccc(O)cc2)Oc2cc(O)cc(O)c21 [NSC 34875]
[5]
  Q (quality score of melting curve, ΔFmelt/ΔFtotal): 0.6
[5]; Table S5, 1 mM ligand
  ΔTm: 1.74 °C
[5]; read-out: KD (Approx)
  pKd: 3.65

## CCOc1ccc(NC(=O)c2cc3ccccc3cc2O)cc1 [NSC 50690]
[6]
  pKd: ~3.33
  Q (quality score): 0.3
  ΔTm: 0.23
[1]; Table S4, protein 1000006, computed from the thermal shifts obtained, read-out: KD (Approx)
  pKd: ~4.29
[1]; Table S4, protein 1000006, in °C (unit assumed)
  ΔTm: 4.59
[1]; Table S4, protein 1000006, ratio ΔFmelt/ΔFtotal
  Q (quality score): 0.8
[2]; [8]
  pKd: ~5.11
[2]; [9]
  ΔTm: 10.27
[2]; Table S4, TrpRS
  Q (quality score): 0.8
[2]; [10]
  pKd: 5.11

## Cc1nc2c(O)cccc2cc1CO [NSC 227309]
[5]
  Q (quality score of melting curve, ΔFmelt/ΔFtotal): 0.8
[5]; Table S5, 1 mM ligand
  ΔTm: 0.64 °C
[5]; read-out: KD (Approx)
  pKd: 3.43

## O=C1c2cc(O)c(O)cc2OC(c2ccc(O)c(O)c2)C1O (centres unmarked) [NSC 36398]
[5]
  Q (quality score of melting curve, ΔFmelt/ΔFtotal): 0.2
[5]; read-out: KD
  pKd: 3.74
[5]; read-out: KD (Approx)
  pKd: 3.74
[5]; [14]
  ΔTm: 2.21 °C

## CCOc1ccc(Nc2c3ccccc3nc3ccccc23)cc1 [NSC 30205]
[1]; Table S6, known binders of 1000001 tested on 1000006
  ΔTm: Ambiguous
[3]; [11]
  pKd: ~5.16
[3]; Table S4, protein 1000001
  ΔTm: 7.3
  Q (quality score): 0.01
[3]; [12]
  ΔTm: 9.91
[4]; inhibitory concentration for 50% growth inhibition, listed as 30205
  HCT-116 (IC-50): 0.146 µg/mL
[4]; inhibitory concentration for 50% growth inhibition, listed as NSC30205
  HCT-116 (IC-50): 0.15 µg/mL

## Nc1ccc(NC(=O)c2ccc(C(=O)Nc3ccc(N)cc3)cc2)cc1 [NSC 55152]
[6]
  pKd: ~4.13
  Q (quality score): 0.2
  ΔTm: 5.89
[2]; [8]
  pKd: ~4.40
[2]; [9]
  ΔTm: 6.17
[2]; Table S4, TrpRS
  Q (quality score): 0.95
[2]; [10]
  pKd: 4.40

## CCCCC(=O)OCC(=O)[C@]1(O)Cc2c(O)c3c(c(O)c2[C@@H](O[C@H]2C[C@H](NC(=O)C(F)(F)F)[C@H](O)[C@H](C)O2)C1)C(=O)c1c(OC)cccc1C3=O [NSC 246131, valrubicin, reference compound]
[1]; [7]
  ΔTm: 5.62
[3]; [11]
  pKd: ~5.83
[3]; Table S4, protein 1000001
  ΔTm: 9.99
  Q (quality score): 0.2
[3]; [12]
  ΔTm: 10.31
[3]; [10]
  pKd: ~5.82
[4]
  IC50: 0.024 µg/mL (≈ 0.0332 µM)

## CCN(CC)CCNC(=O)c1c(C)[nH]c(/C=C2\C(=O)Nc3ccc(F)cc32)c1C [NSC 750690, Sunitinib, reference compound]
[2]; Table S4, TrpRS
  Q (quality score): 1.3
[2]; [14]
  ΔTm: 14.57 °C
[4]
  IC50: 1.1 µg/mL (≈ 2.76 µM)
[4]; [13]
  HCT-116 (IC-50): 1.11 µg/mL

## Nc1ccn([C@@H]2O[C@H](CO)[C@@H](O)[C@@H]2O)c(=O)n1 [NSC 63878]
[5]; read-out: KD (Approx)
  pKd: 3.74

## O=C(Nc1cccc([N+](=O)[O-])c1)c1cc2ccccc2cc1O [NSC 37168]
[2]; [8]
  pKd: ~5.04
[2]; [9]
  ΔTm: 9.9
[2]; Table S4, TrpRS
  Q (quality score): 0.4
[2]; [10]
  pKd: ~5.04
[4]; [13]
  HCT-116 (IC-50): 1.34 µg/mL
